Data from patent US20140303188A1, “Substituted Cyclopenta Pyrimidine Bicyclic Compounds Having Antitmitotic And/Or Antitumor Activity And Methods Of Use Thereof” (DUQUESNE UNIVERSITY OF THE HOLY SPIRIT, priority 2008, published 2014).
Counter-ions that a name gives are not always drawn. Like-named read-outs stand apart in the source and are kept apart here.

Tests used:
[1] = test system: MDA MB 435, SKOV3, SKOV3M6/6; experiment: cytotoxicity towards panel of human cell lines
Method: (§1) Antimitotic compounds AAG1, AAG7, AAG12, AAG16, AAG20, and AAG26, Taxol®, and combrestastatinA4, were evaluated for cytotoxity towards the panel of human cell lines MDA MB 435 (human breast cancer), SKOV3 (human ovarian cancer), and SKOV3M6/6 (Pgp infected human ovarian cancer). […] The IC50 is the inhibitory concentration required to effectuate fifty percent inhibition of cell growth.

[2] = test system: A-10 rat smooth muscle cell line; experiment: microtubule depolymerization immunofluorescence assay; assay type: cell-based; conditions: 24 h; 250 nM AAG1, 500 nM AAG7, 40 nM AAG16
Method: A-10 rat smooth muscle cells were used since they grow as flat monolayers that are amenable to imaging. The A-10 cells were treated for twenty four (24) hours (h) with EtOH (control), 250 nM (nanomolar) AAG1, 500 nM AAG7, or 40 nM AAG16, respectively. Microtubules were then visualized by indirect immunofluorescence staining with beta-tubulin antibodies. […] Each of the compounds AAG1, AAG7, and AAG16 has potent nanomolar tubulin inhibitory activity. Compounds of the present invention having the structural Formulas III and IV, as set forth herein, inhibit the microtubule dynamics. The inhibition of microtubule dynamics hinders microtubule formation and results in mitotic arrest and initiation of apoptosis or programmed cell death.

Wild type HeLa = experiment: antiproliferative activity, isogenic HeLa pair, wild type; assay type: cell-based; conditions: read-out: IC50 ± SD Wild type HeLa
Excerpt: (§2) One mechanism of drug resistance that can lead to chemotherapy failure with tubulin targeting agents is the expression of the βIII isotype of tubulin.

[3] = test system: β-III Overexpressing HeLa; experiment: antiproliferative activity, isogenic HeLa pair, βIII tubulin; assay type: cell-based; conditions: for Rr: HeLa cell line pair, wild type and βIII tubulin; for IC50: read-out: IC50 ± SD β-III Overexpressing HeLa
Excerpt: as §2

tubulin = experiment: antitubulin activities; assay type: cell-based; conditions: for IC50: read-out: IC50 (antitubulin agent)
Excerpt: Compounds 1, 2 are cyclopenta pyrimidine compounds. Their antitubulin activities are set forth above. […] The structural differences between Compounds 1 and 2 lead to several pharmacological ramifications. Among them, the conformation of aniline rings maybe a pivotal factor that results in the affinity difference. In order to validate this, we set forth a preferred representative series of N-methyl-N-methoxynaphthyl cyclopenta[d]pyrimidin-4-amine (4) based on the high potent antibulin agent 3 (IC50=7.0 nM). All these preferred representative methoxynaphthyl substituted bicyclic compounds of this invention have the same function groups and molecular weight, similar Log D.

[4] = test system: MDA MB 435 human breast cancer; experiment: flow cytometric analysis of cell cycle phase distribution; assay type: cell-based; conditions: treatment for twenty four hours
[5] = test system: SKOV3M6/6 (Pgp infected human ovarian cancer); experiment: cytotoxicity towards Pgp infected ovarian cancer cell line; conditions: for IC50: Homo sapiens; for calculated relative resistance value: SKOV3M6/6 versus SKOV3, FIG. 4
Method: as §1

[6] = test system: MDA-MB-435 tumor cell line; experiment: inhibition of proliferation, sulforhodamine B assay; assay type: cell-based; conditions: read-out: IC50 ± SD (MDA-MB-435) Tumor cells
Method: (§3) However, the reverse orientation of methoxy and methylamino on the naphthyl, compound 11, has no microtubule depolymerization inhibitory activity up to 10 000 nM.

NCI 55 human tumor lines = NCI 55 human tumor lines in vitro screen; assay type: cell-based; conditions: all 55 tumor cell lines
Excerpt: FIGS. 5a and 5b show the results of testing compound AAG1 of the present invention using National cancer Institute (NCl) 55 human tumor lines. The cells lines, which represent leukemia, non-small cell lung cancer, colon cancer, central nervous system cancer, melanoma, ovarian cancer, renal cancer, prostate cancer, and breast cancer, are listed in FIG. 5. Testing was in accordance with the NCI Developmental Therapeutics Program (DTP) In Vitro Cell Line Screening Project (IVCLSP). Methodology for testing under IVCLSP is provided at http://dtp.nci.gov/branches/btb/ivclsp.html.
GI50 is the concentration of chemical required to reduce the growth of treated cells to half that of untreated cells (i.e. control). GI50 represents the concentration of chemical required to effectuate fifty percent inhibition of cell growth.

A-10 cells = experiment: cell-based phenotypic screen of microtubule disrupting effects; set-up: species or system rat; conditions: read-out: EC50 in A-10 cells (Tubulin depolymerization inhibitory acitivity)
Method: as §3

[7] = test system: colchicine site on tubulin; experiment: inhibition of [3H]colchicine binding to tubulin; conditions: 1 μM inhibitor
Method: (§4) This allows for the study of the direct interaction of the compounds with their intracellular target. The ability of these compounds to bind to the colchicine site on tubulin was evaluated by measuring inhibition of [^3H]colchicine binding to tubulin.

purified tubulin = experiment: inhibition of tubulin assembly; assay type: biochemical; conditions: read-out: Inhibition of tubulin assembly IC50 ± SD
Method: as §4, with “The effects of designed compounds 10-14 on the polymerization of purified tubulin were evaluated. This” for “This”, “tubulin. […] It is therefore likely that 13 binds in the colchicine site.” for “tubulin.”

[8] = Homo sapiens, MDA-MB-435, MDA-MB-435

Compound: COc1ccc(N(C)c2nc(N)nc3c2CC(C)C3)cc1 (centres unmarked) [AAG7, N^4-(4-Methoxyphenyl)-N^4,6-dimethyl-6,7-dihydro-5H-cyclopenta[d]pyrimidine-2,4-diamine]
- cytotoxic activity toward each of the human cancer cell lines tested ([1]; MDA MB 435, SKOV3, SKOV3M6/6): have cytotoxic activity
- effect on microtubules (immunofluorescence, beta-tubulin antibodies) [2]: caused losses of microtubules

Compound: CC(=O)O[C@@]12CO[C@@H]1C[C@H](O)[C@@]1(C)C(=O)[C@H](O)C3=C(C)[C@@H](OC(=O)[C@H](O)[C@@H](NC(=O)OC(C)(C)C)c4ccccc4)C[C@@](O)([C@@H](OC(=O)c4ccccc4)[C@H]21)C3(C)C [Docetaxel, docetaxel, reference compound]
- IC50 (Wild type HeLa; Homo sapiens, HeLa): 4 ± 2 nM
- Rr [3]: 0.31
- IC50 ([3]; Homo sapiens, HeLa): 13 ± 4 nM

Compound: COc1ccc(Nc2nc(C)nc3c2CC(C)C3)cc1 (centres unmarked) [Compound 1]
- antitubulin activity in words (tubulin): almost inactive

Compound: COc1ccc(N(C)c2ncnc3occ(C)c23)cc1 [AAG16, N-(4-methoxyphenyl)-N,5-dimethylfuro[2,3-d]pyrimidin-4-amine]
- percentage of cells in the G2/M phases [4]: increased approximately two-fold
- cytotoxic activity toward each of the human cancer cell lines tested ([1]; MDA MB 435, SKOV3, SKOV3M6/6): have cytotoxic activity
- effect on microtubules (immunofluorescence, beta-tubulin antibodies) [2]: caused losses of microtubules
- IC50 [5]: 8.4 nM

Compound: COc1ccc(N(C)c2nc(C)nc3c2CCC3)cc1 [Compound 3]
- IC50 [6, 8]: 7 ± 0.7 nM
- IC50 (tubulin): 7 nM

Compound: COc1cccc2cc(N(C)c3nc(C)nc4c3CCC4)ccc12 [Compound 13, N,2-dimethyl-N-(5′-methoxynaphthyl-2′-amino)-cyclopenta[d]pyrimidin-4-amine]
- IC50 (Wild type HeLa; Homo sapiens, HeLa): 4 ± 1 nM
- IC50 [6, 8]: 10 nM
- IC50 ([6]; MDA-MB-435): 10.2 ± 0.46 nM
- Rr [3]: 1.0
- IC50 ([3]; Homo sapiens, HeLa): 4 ± 1 nM

Compound: COc1ccc(N(C)c2nc(C)nc3c2CC(C)C3)cc1 (centres unmarked) [Compound 2]
- IC50 (tubulin): 25.7 nM

Compound: N-(4-methoxy-phenyl)-6-methyl-5H-pyrrolo[3,2-d]pyrimidine-2,4-diamine [AAG12]
- percentage of cells in the G2/M phases [4]: increased approximately two-fold
- cytotoxic activity toward each of the human cancer cell lines tested [1]: have cytotoxic activity

Compound: COc1ccc(N(C)c2nc(C)nc3[nH]ccc23)cc1 [AAG20, N-(4-methoxyphenyl)-N,2-dimethyl-7H-pyrrolo[2,3-d]pyrimidin-4-amine]
- percentage of cells in the G2/M phases [4]: increased approximately two-fold
- cytotoxic activity toward each of the human cancer cell lines tested ([1]; MDA MB 435, SKOV3, SKOV3M6/6): have cytotoxic activity

Compound: COc1cccc2cc(N(C)c3ncnc4c3CCC4)ccc12 [Compound 12]
- IC50 (Wild type HeLa; Homo sapiens, HeLa): 15 nM
- IC50 [6, 8]: 33.7 ± 3.4 nM
- Rr [3]: 1.07
- IC50 ([3]; Homo sapiens, HeLa): 14 ± 1 nM

Compound: COc1ccc(N(C)c2nc(C)nc3c2CC(C)C3)cc1 (centres unmarked) (as salt: chloride) [AAG26, N-(4-Methoxyphenyl)-N,2,6-trimethyl-6,7-dihydro-5H-cyclopenta[d]pyrimidin-4-aminium chloride]
- melting point: 196 to 198 °C

Compound: CC(=O)O[C@H]1C(=O)[C@@]2(C)[C@H]([C@H](OC(=O)c3ccccc3)[C@]3(O)C[C@H](OC(=O)[C@H](O)[C@@H](NC(=O)c4ccccc4)c4ccccc4)C(C)=C1C3(C)C)[C@]1(OC(C)=O)CO[C@@H]1C[C@@H]2O [Paclitaxel, paclitaxel, reference compound]
- IC50 (Wild type HeLa; Homo sapiens, HeLa): 5.3 ± 2 nM
- IC50 [5]: 4400 nM
- calculated relative resistance value [5]: 2013
- Rr [3]: 0.33
- IC50 ([3]; Homo sapiens, HeLa): 16 ± 1 nM

Compound: COc1ccc(N(C)c2nc(C)nc3c2CC(C)C3)cc1 (centres unmarked) [AAG26, N-(4-Methoxyphenyl)-N,2,6-trimethyl-6,7-dihydro-5H-cyclopenta[d]pyrimidin-4-aminium chloride]
- cytotoxic activity toward each of the human cancer cell lines tested ([1]; MDA MB 435, SKOV3, SKOV3M6/6): have cytotoxic activity
- IC50 [5]: 3.2 nM

Compound: COc1ccc(N(C)c2nc(C)nc3oc(C)cc23)cc1 [AAG1, N-(4-methoxyphenyl)-N,2,6-trimethylfuro[2,3-d]pyrimidin-4-amine]
- percentage of cells in the G2/M phases [4]: increased approximately two-fold
- cytotoxic activity toward each of the human cancer cell lines tested ([1]; MDA MB 435, SKOV3, SKOV3M6/6): have cytotoxic activity
- GI50 (NCI 55 human tumor lines): single digit 10^−8 molar levels
- effect on microtubules (immunofluorescence, beta-tubulin antibodies) [2]: caused losses of microtubules
- IC50 [5]: 171 nM
- calculated relative resistance value [5]: 4.7

Compound: COc1ccc(/C=C\c2cc(OC)c(OC)c(OC)c2)cc1O [CA4, combretastatin A-4, reference compound]
- IC50 (Wild type HeLa): 1.8 ± 0.4 nM
- EC50 (A-10 cells; A-10 cells): 13 nM
- Inhibition of colchicine binding % Inhibition ± SD [7]: 90 ± 0.2%
- IC50 ([6]; MDA-MB-435): 3.4 ± 0.6 nM
- Rr [3]: 0.72
- IC50 [3]: 2.5 ± 0.7 nM

Compound: COc1ccc2c(N(C)c3ncnc4c3CCC4)cccc2c1 [Compound 10]
- EC50 (A-10 cells; Rattus norvegicus, A10): > 10000 nM

Compound: COc1ccc2c(N(C)c3nc(C)nc4c3CCC4)cccc2c1 [Compound 11, N,2-dimethyl-N-(6′-methoxynaphthyl-1′-amino)-cyclopenta[d]pyrimidin-4-amine]
- IC50 (Wild type HeLa; Homo sapiens, HeLa): > 10000 nM
- EC50 (A-10 cells; Rattus norvegicus, A10): > 10000 nM
- IC50 ([3]; Homo sapiens, HeLa): > 10000 nM

Compound: COc1ccc(N(C)c2nc(C)nc3c2CCC3)c2ccccc12 [Compound 14]
- IC50 (Wild type HeLa; Homo sapiens, HeLa): 85 ± 5 nM
- EC50 (A-10 cells; Rattus norvegicus, A10): 500 ± 2.1 nM
- IC50 [6, 8]: 234 ± 20 nM
- Rr [3]: 0.47
- IC50 ([3]; Homo sapiens, HeLa): 180 ± 40 nM
